{"source": "patent US6503932B2", "about": "“Fungicidal mixtures based on amide compounds” (BASF Aktiengesellschaft, priority 2000, dated 2003)", "key": {"[1]": {"test_system": "mildew of wheat (Blumeria graminis forma specialis tritici)", "experiment": "Activity against mildew of wheat (protective, potted wheat seedlings)", "assay_type": "in vivo", "settings": "wheat 'Kanzler', 7 days", "experimental": "(§1) The active compounds, separately or together, were formulated as a 10% strength emulsion in a mixture of 70% by weight of cyclohexanone, 20% by weight of Nekanil® LN (Lutensol® AP6, wetting agent having emulsifying and dispersing action based on ethoxylated alkylphenols) and 10% by weight of Emulphor® EL (Emulan® EL, emulsifier based on ethoxylated fatty alcohols) and correspondingly diluted with water to the desired concentration.\n(§2) Evaluation was carried out by determining the infected leaf areas in percent. These percentages were converted into efficacies. The efficacy (W) was calculated as follows using Abbot's formula: […]\nThe expected efficacies of the mixtures of the active compounds were determined using Colby's formula [R. S. Colby, Weeds 15, 20-22 (1967)] and compared with the observed efficacies. […]\nLeaves of potted wheat seedlings of the culivar “Kanzler” were sprayed to run off point with an aqueous preparation of active compound which had been prepared from a stock solution made of 10% of active compound, 85% of cyclohexanone and 5% of emulsifier and, 24 hours after the spray coating had dried on, dusted with spores of mildew of wheat (Blumeria graminis forma specialis tritici). […] After 7 days, the extent of the mildew development was determined visually in % infection of the total leaf area. […]"}, "[2]": {"test_system": "Puccinia recondita", "experiment": "Curative activity against Puccinia recondita on wheat (wheat leaf rust)", "assay_type": "in vivo", "settings": "wheat 'Kanzler', 7 days", "experimental": "as §1, §2\nα corresponds to the fungal infection of the treated plants in % and β corresponds to the fungal infection of the untreated (control) plants in % An efficacy of 0 means that the infection level of the treated plants corresponds to that of the untreated control plants; an efficacy of 100 means that the treated plants were not infected.\nThe expected efficacies of the mixtures of the active compounds were determined using Colby's formula [R. S. Colby, Weeds 15, 20-22 (1967)] and compared with the observed efficacies.\nColby's formula: E=x+y−x·y/100\nE expected efficacy, expressed in % of the untreated control, when using the mixture of the active compounds A and B at the concentrations a and b x efficacy, expressed in % of the untreated control, when using active compound A at a concentration of a y efficacy, expressed in % of the untreated control, when using active compound B at a concentration of b.\nLeaves of potted wheat seedlings of the cultivar “Kanzler” were dusted with spores of leaf rust (Puccinia recondita). Thereafter, the pots were kept for 24 hours in a chamber of high atmospheric humidity (90 to 95%) and at 20-22° C. During this time, the spores germinated and the germinal tubes penetrated into the leaf tissue. […] Thereafter, the extent of the rust fungus development on the leaves was determined. […]"}}}
{"substance": "spiroxamine [spiroxamine (II)]", "values": [{"measurement": "Efficacy in % of the untreated control", "setting": "[1]; 1.5 ppm in the spray liquor", "result": 0, "unit": "%"}, {"measurement": "Efficacy in % of the untreated control", "setting": "[1]; 3 ppm in the spray liquor", "result": 20, "unit": "%"}, {"measurement": "Efficacy in % of the untreated control", "setting": "[2]; 1.5 ppm in the spray liquor", "result": 0, "unit": "%"}, {"measurement": "Efficacy in % of the untreated control", "setting": "[2]; 3 ppm in the spray liquor", "result": 0, "unit": "%"}, {"measurement": "Efficacy in % of the untreated control", "setting": "[2]; 12.5 ppm in the spray liquor", "result": 30, "unit": "%"}]}
